Experimental data: publication PMC7922224, “Searching for Small Molecules as Antibacterials: Non-Cytotoxic Diarylureas Analogues of Triclocarban” (Antibiotics, 2021)
Values after ≈ are worked out from the molar mass of the structure shown.

Tested on: S. aureus ATCC 29213
Experiment: MIC by broth microdilution (CLSI)
Type: cell-based, Staphylococcus aureus
Conditions: Staphylococcus aureus, ATCC29213; Gram-positive; 37 °C, 24 h, Mueller Hinton Broth
Procedure: (§1) The in vitro Minimum Inhibitory Concentrations (MICs, μg/mL) were determined by the broth microdilution method according to the Clinical Laboratory Standards Institute (CLSI) guidelines. MIC values were recorded as the lowest concentration of compounds at which there was no optically detectable microorganism growth and evaluated by comparing the growth in each well visually with that of the growth in the control well for bacteria. All compounds were dissolved in dimethyl sulfoxide (DMSO) and were tested in a final concentration range of from 512 to 2 µg/mL. MICs for the reference antibiotic norfloxacin against quality control strains were used to confirm the validity of the screen. According to the CLSI guidelines, diphenylureas were tested in vitro against a panel of Gram-positive and Gram-negative bacteria belonging to the ATCC collection using the standard microdilution test for the determination of MICs. MICs of the synthesised compounds along with the parent compound TCC and with the standard antibiotic norfloxacin are listed in Table 1. The compounds were also analyzed in terms of molecular mass, logP (Table 1), number of hydrogen-bond donors and number of hydrogen-bond acceptors, and most of them obeyed Lipinski’s rule. […] Based on our results, it seems that the 3,4-dichloro-disubstitution pattern, which is present in TCC, is not crucial for activity. […] Moreover, the activity against Enterococcus faecalis was interesting. E. faecalis is a ubiquitous member of the healthy human gut microbiota and also a common opportunistic pathogen and leading cause of nosocomial infections. It has a high incidence for most infections, and the case numbers have been increasing in recent decades, likely due to its greater ability to persist in healthcare facilities and its higher abundance in the human gut microbiome. Kim et al. (2016) compared the bactericidal effects of plain and antibacterial soap containing 0.3% TCC. The authors found no significative difference between the effects of plain and medicated soap at either temperature, with the only exception of E. faecalis ATCC 19433 at 40 °C.
(§2) MICs (μg/mL) were determined by the broth microdilution method, using 96-well plates, according to CLSI [26]. Stock solutions of the investigated compounds were obtained by setting the concentration at the maximum possible value. Then, the stock solutions were diluted 1:10 with Mueller Hinton Broth (Oxoid, Italy). Afterwards, twofold serial dilutions in the suitable test medium were carried out to obtain a set of concentrations from 512 to 2 µg/mL in the wells. To obtain the stock solution, DMSO (100%) was employed as diluent. The following bacteria strains, available as freeze-dried discs, belonging to the ATCC collection, were used: Gram-positive: S. aureus ATCC 29213, 6538, and 6538P, E. faecalis ATCC 29212; Gram-negative: K. pneuomoniae ATCC 13883, P. aeruginosa ATCC 27853. To conserve the purity of cultures and to enable their reproducibility, cryovials of all microbial strains in the medium were set up and stored at −80 °C. Pre-cultures of each bacterial strain were prepared in Mueller Hinton Broth (MHB) and incubated at 37 °C for 3–5 h. The turbidity of bacterial cell suspension was calibrated to 0.5 McFarland Standard by the spectrophotometric method (OD 625 nm 0.08–0.10), as indicated in the CLSI protocol M7-A9 and, further, the standardized suspension was diluted (1:100) with MHB to reach 1–2 × 10^6 CFU/mL. All wells were seeded with 100 µl of the mentioned final inoculum, and some wells contained only inoculated broth as control growth. […] The MICs were determined by using the assay repeated twice in triplicate. Throughout the study, norfloxacin was used as reference antibiotic. Appropriate controls involved norfloxacin for bacteria as international reference standard. […]

SMILES | MIC
O=C(Nc1ccc(Cl)cc1)Nc1ccc(Cl)c(Cl)c1 [1ce (TCC), 1-(3,4-Dichlorophenyl)-3-(4-chlorophenyl)urea, reference compound] | 16 µg/mL (≈ 50.7 µM)
Cc1ccccc1NC(=O)Nc1ccccc1Cl [1gh, 1-(2-Chlorophenyl)-3-(2-methylphenyl)urea] | 256 µg/mL (≈ 982 µM)

Tested on: S. aureus ATCC 6538P
Experiment: MIC by broth microdilution (CLSI)
Type: cell-based, Staphylococcus aureus
Conditions: Staphylococcus aureus, ATCC6538P; Gram-positive; 37 °C, 24 h, Mueller Hinton Broth
Procedure: as §1, §2

SMILES | MIC
O=C(Nc1ccc(Cl)cc1)Nc1ccc(Cl)c(Cl)c1 [1ce (TCC), 1-(3,4-Dichlorophenyl)-3-(4-chlorophenyl)urea, reference compound] | 16 µg/mL (≈ 50.7 µM)
Cc1ccccc1NC(=O)Nc1ccccc1Cl [1gh, 1-(2-Chlorophenyl)-3-(2-methylphenyl)urea] | 32 µg/mL (≈ 123 µM)

Tested on: S. aureus ATCC 6538
Experiment: MIC by broth microdilution (CLSI)
Type: cell-based, Staphylococcus aureus
Conditions: Staphylococcus aureus, ATCC6538; Gram-positive; 37 °C, 24 h, Mueller Hinton Broth
Procedure: as §1, §2

SMILES | MIC
O=C(Nc1ccc(Cl)cc1)Nc1ccc(Cl)c(Cl)c1 [1ce (TCC), 1-(3,4-Dichlorophenyl)-3-(4-chlorophenyl)urea, reference compound] | 128 µg/mL (≈ 406 µM)
Cc1ccccc1NC(=O)Nc1ccccc1Cl [1gh, 1-(2-Chlorophenyl)-3-(2-methylphenyl)urea] | 32 µg/mL (≈ 123 µM)

Tested on: E. faecalis ATCC 29212
Experiment: MIC by broth microdilution (CLSI)
Type: cell-based, Enterococcus faecalis
Conditions: Enterococcus faecalis, ATCC29212; Gram-positive; 37 °C, 24 h, Mueller Hinton Broth; read-out: MIC E.f. 29212
Procedure: as §1, §2

SMILES | MIC
O=C(Nc1ccc(Cl)cc1)Nc1ccc(Cl)c(Cl)c1 [1ce (TCC), 1-(3,4-Dichlorophenyl)-3-(4-chlorophenyl)urea, reference compound] | 64 µg/mL (≈ 203 µM)
Cc1ccccc1NC(=O)Nc1ccccc1Cl [1gh, 1-(2-Chlorophenyl)-3-(2-methylphenyl)urea] | 256 µg/mL (≈ 982 µM)

Tested on: E. coli 25922
Experiment: MIC by broth microdilution (CLSI)
Type: cell-based
Conditions: Escherichia coli, Gram-negative, 37 °C, 24 h, Mueller Hinton Broth

SMILES | MIC
O=C(Nc1ccc(Cl)cc1)Nc1ccc(Cl)c(Cl)c1 [1ce (TCC), 1-(3,4-Dichlorophenyl)-3-(4-chlorophenyl)urea, reference compound] | 256 µg/mL (≈ 811 µM)
Cc1ccccc1NC(=O)Nc1ccccc1Cl [1gh, 1-(2-Chlorophenyl)-3-(2-methylphenyl)urea] | > 256 µg/mL

Tested on: K. pneumoniae ATCC 13883
Experiment: MIC by broth microdilution (CLSI)
Type: cell-based
Conditions: Klebsiella pneumoniae, ATCC13883; Gram-negative; 37 °C, 24 h, Mueller Hinton Broth; read-out: MIC K.p. 13883
Procedure: as §1, §2

SMILES | MIC
O=C(Nc1ccc(Cl)cc1)Nc1ccc(Cl)c(Cl)c1 [1ce (TCC), 1-(3,4-Dichlorophenyl)-3-(4-chlorophenyl)urea, reference compound] | 256 µg/mL (≈ 811 µM)
Cc1ccccc1NC(=O)Nc1ccccc1Cl [1gh, 1-(2-Chlorophenyl)-3-(2-methylphenyl)urea] | > 256 µg/mL

Tested on: P. aeruginosa ATCC 27853
Experiment: MIC by broth microdilution (CLSI)
Type: cell-based
Conditions: Pseudomonas aeruginosa, ATCC27853; Gram-negative; 37 °C, 24 h, Mueller Hinton Broth
Procedure: as §1, §2

SMILES | MIC
O=C(Nc1ccc(Cl)cc1)Nc1ccc(Cl)c(Cl)c1 [1ce (TCC), 1-(3,4-Dichlorophenyl)-3-(4-chlorophenyl)urea, reference compound] | 256 µg/mL (≈ 811 µM)
Cc1ccccc1NC(=O)Nc1ccccc1Cl [1gh, 1-(2-Chlorophenyl)-3-(2-methylphenyl)urea] | > 256 µg/mL

Tested on: Staphylococcus aureus
Experiment: MIC by broth microdilution, S. aureus (strain not given)
Type: cell-based
Conditions: strain not specified (best value among the ATCC strains), read-out: MIC against S. aureus
Procedure: as §1, §2

SMILES | MIC
O=C(Nc1ccc(Cl)cc1)Nc1ccc(Cl)c(Cl)c1 [1ce (TCC), 1-(3,4-Dichlorophenyl)-3-(4-chlorophenyl)urea, reference compound] | 16 µg/mL (≈ 50.7 µM)
Cc1ccccc1NC(=O)Nc1ccccc1Cl [1gh, 1-(2-Chlorophenyl)-3-(2-methylphenyl)urea] | 32 µg/mL (≈ 123 µM)

Tested on: A2058 melanoma epithelial cells
Experiment: MTT cell viability assay
Type: cell-based
Conditions: Homo sapiens, 72 h, mean ± SD of three independent experiments
Description: (§3) Human MCF-7 and MDA-MB-231 breast cancer cells, HeLa and […] uterine carcinoma cells, A2058 melanoma epithelial cells, MCF-10A mammary epithelial cells and Hek-293 embryonic kidney epithelial cells were obtained from American Type Culture Collection (ATCC, Manassas, VA, USA). Estrogen receptor positive [(ER(+)] MCF-7 and triple negative MDA-MB-231 breast cancer cells were maintained in Dulbecco’s modified Eagle’s medium/nutrient mixture F-12 Ham (DMEM-F12) medium containing 2 mmol/L L-glutamine, 1 mg/mL penicillin-streptomycin and supplemented with 5% fetal bovine serum (FBS). HeLa epithelial cervix carcinoma cells, estrogen receptor negative [ER(-)], and Ishikawa endometrial adenocarcinoma cell, estrogen receptor positive [ER(+)], were kept in minimum essential medium (MEM), supplemented with 10% FBS, 100 U/mL penicillin/streptomycin and 1% non-essential amino acid. A2058 highly metastatic melanoma epithelial cells were kept in DMEM low glucose (1 g/L), supplemented with 20% FBS, 1% l-glutamine and 100 U/mL penicillin/streptomycin. MCF-10A mammary epithelial cells, were cultured in DMEM/F12 medium, supplemented with 5% horse serum (HS), 100 U/mL penicillin/streptomycin, […] hydrocortisone, 20 ng/mL human epidermal growth factor (hEGF), […] and […] cholera enterotoxin (Sigma-Aldrich, Milan, Italy). Hek-293 embryonic kidney epithelial cells were cultured in DMEM high glucose (4.5 g/L), supplemented with 10% FBS, 1% l-glutamine and 100 U/mL penicillin/streptomycin. Cells were conserved at 37 °C in a humid atmosphere of 95% air and 5% CO2, and screened for contamination at regular intervals.
(§4) Cell viability was determined using the 3-(4,5-dimethylthiazol-2-y1)-2,5-diphenyltetrazolium bromide (MTT, Sigma-Aldrich, Milan, Italy) assay. Cells were seeded on 48-well plates and grown in complete medium. Before treatment, cells were starved in serum free medium for 24 h to allow cell cycle synchronization. […] Data are representative of three independent experiments; standard deviations (SD) are shown.

SMILES | IC50
O=C(Nc1ccc(Cl)cc1)Nc1ccc(Cl)c(Cl)c1 [1ce (TCC), 1-(3,4-Dichlorophenyl)-3-(4-chlorophenyl)urea, reference compound] | 0.89 ± 0.7 µg/mL (≈ 2.82 µM)

Tested on: HeLa uterine cancer cells
Experiment: MTT cell viability assay
Type: cell-based
Conditions: Homo sapiens, 72 h, mean ± SD of three independent experiments
Description: as §3, §4

SMILES | IC50
O=C(Nc1ccc(Cl)cc1)Nc1ccc(Cl)c(Cl)c1 [1ce (TCC), 1-(3,4-Dichlorophenyl)-3-(4-chlorophenyl)urea, reference compound] | 1.01 ± 1.1 µg/mL (≈ 3.2 µM)

Tested on: Hek-293 embryonic kidney epithelial cells
Experiment: MTT cell viability assay
Type: cell-based
Conditions: Homo sapiens, HEK293, normal cells, 72 h, mean ± SD of three independent experiments
Description: as §3, §4

SMILES | IC50
O=C(Nc1ccc(Cl)cc1)Nc1ccc(Cl)c(Cl)c1 [1ce (TCC), 1-(3,4-Dichlorophenyl)-3-(4-chlorophenyl)urea, reference compound] | 1.6 ± 0.8 µg/mL (≈ 5.07 µM)

Tested on: Ishikawa uterine cancer cells
Experiment: MTT cell viability assay
Type: cell-based
Conditions: Homo sapiens, 72 h, mean ± SD of three independent experiments
Description: as §3, §4

SMILES | IC50
O=C(Nc1ccc(Cl)cc1)Nc1ccc(Cl)c(Cl)c1 [1ce (TCC), 1-(3,4-Dichlorophenyl)-3-(4-chlorophenyl)urea, reference compound] | 1.68 ± 0.9 µg/mL (≈ 5.32 µM)

Tested on: MCF-10A mammary epithelial cells
Experiment: MTT cell viability assay
Type: cell-based
Conditions: Homo sapiens, normal cells, 72 h, mean ± SD of three independent experiments
Description: as §3, §4

SMILES | IC50
O=C(Nc1ccc(Cl)cc1)Nc1ccc(Cl)c(Cl)c1 [1ce (TCC), 1-(3,4-Dichlorophenyl)-3-(4-chlorophenyl)urea, reference compound] | 1.43 ± 0.7 µg/mL (≈ 4.53 µM)

Tested on: MCF-7 breast cancer cells
Experiment: MTT cell viability assay
Type: cell-based
Conditions: Homo sapiens, MCF7, 72 h, mean ± SD of three independent experiments
Description: as §3, §4

SMILES | IC50
O=C(Nc1ccc(Cl)cc1)Nc1ccc(Cl)c(Cl)c1 [1ce (TCC), 1-(3,4-Dichlorophenyl)-3-(4-chlorophenyl)urea, reference compound] | 0.64 ± 0.5 µg/mL (≈ 2.03 µM)

Tested on: MDA-MB-231 breast cancer cells
Experiment: MTT cell viability assay
Type: cell-based
Conditions: Homo sapiens, 72 h, mean ± SD of three independent experiments
Description: as §3, §4

SMILES | IC50
O=C(Nc1ccc(Cl)cc1)Nc1ccc(Cl)c(Cl)c1 [1ce (TCC), 1-(3,4-Dichlorophenyl)-3-(4-chlorophenyl)urea, reference compound] | 0.89 ± 0.8 µg/mL (≈ 2.82 µM)

Tested on: cancer cell lines (MCF-7, MDA-MB-231, HeLa, Ishikawa, A2058)
Experiment: MTT cell viability assay, panel of cancer cell lines
Type: cell-based
Conditions: Homo sapiens, all cancer cell lines used, 72 h, read-out: IC50 against the cancer cell lines
Description: In order to investigate the anticancer effects of compounds 1ab, 1bc and 1ce (TCC), we used different human cancer cell models, namely, two breast cancer cells (MCF-7 and MDA-MB-231), two uterine cancer cells (HeLa and Ishikawa) and the melanoma epithelial cells A2058.
as §3
Cell viability was determined using the 3-(4,5-dimethylthiazol-2-y1)-2,5-diphenyltetrazolium bromide (MTT, Sigma-Aldrich, Milan, Italy) assay. […]

SMILES | IC50
O=C(Nc1ccc(Cl)cc1)Nc1ccc(Cl)c(Cl)c1 [1ce (TCC), 1-(3,4-Dichlorophenyl)-3-(4-chlorophenyl)urea, reference compound] | 0.64 to 1.68 µg/mL (≈ 2.03 to 5.32 µM)

Tested on: not given
Experiment: not given
Conditions: not given

SMILES | melting point
Cc1ccccc1NC(=O)Nc1ccccc1Cl [1gh, 1-(2-Chlorophenyl)-3-(2-methylphenyl)urea] | 223 to 224 °C
